Results reported in ChEMBL document CHEMBL3301562, “MMV Box screening against Plasmodium falciparum protein kinases and aminoacyl tRNA synthetases”.

How the values were obtained:
Type in all cases: functional
[1] = target: T1, Mitogen-activated protein kinase (Plasmodium falciparum, UniProt Q25917); assay: Final concentrations were 1 uM ATP, 0.5 mM DTT, 1 mM MgCl2, 0.5 mg/mL BSA, and 10 ug/ml MAP2 in a buffer of 50 mM HEPES (pH 7.0). 0.5 mg/mL histone III-S served as the substrate (13); 100 uM AMP-PNP, an ATP analog, was used as a control inhibitor. Incubation time was 4 hours.
T1 sequence (Q25917 whole entry): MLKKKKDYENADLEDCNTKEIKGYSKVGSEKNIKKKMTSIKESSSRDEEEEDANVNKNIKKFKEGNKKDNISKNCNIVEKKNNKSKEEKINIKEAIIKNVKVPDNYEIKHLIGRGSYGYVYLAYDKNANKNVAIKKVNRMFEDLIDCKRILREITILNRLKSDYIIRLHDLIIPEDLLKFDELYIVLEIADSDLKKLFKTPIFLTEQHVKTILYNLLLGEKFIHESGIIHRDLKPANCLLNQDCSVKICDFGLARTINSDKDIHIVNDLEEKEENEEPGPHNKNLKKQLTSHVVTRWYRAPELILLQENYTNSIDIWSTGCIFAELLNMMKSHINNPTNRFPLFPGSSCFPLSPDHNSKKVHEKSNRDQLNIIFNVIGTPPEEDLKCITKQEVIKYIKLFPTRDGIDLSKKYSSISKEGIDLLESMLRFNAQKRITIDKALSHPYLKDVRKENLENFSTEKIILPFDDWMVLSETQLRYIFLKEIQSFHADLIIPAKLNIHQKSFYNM

[2] = target: T2, Cdk-related protein kinase 6 (Plasmodium falciparum, UniProt O77239); assay: Final concentrations were 1.5 uM ATP, 5 mM MnCl2, and 15 ug/ml PK6 in a buffer of 100 mM Tris-HCl (pH 7.5). 50 ug/mL MBP was provided as the substrate; 10 uM staurosporine was used as a control inhibitor. Incubation time was 3 hours and 40 minutes.The catalytic activity of each kinase was considered proportional to ATP consumed, as determined from measurements of residual [ATP] with the luciferase-based reagent Kinase-Glo (Promega) following incubation. Luminescence (proportional to residual [ATP]) was measured on the plate readers FLx800 (BioTek Instruments, Winooski, VT, USA) and MicroBeta2.
T2 sequence (O77239 whole entry): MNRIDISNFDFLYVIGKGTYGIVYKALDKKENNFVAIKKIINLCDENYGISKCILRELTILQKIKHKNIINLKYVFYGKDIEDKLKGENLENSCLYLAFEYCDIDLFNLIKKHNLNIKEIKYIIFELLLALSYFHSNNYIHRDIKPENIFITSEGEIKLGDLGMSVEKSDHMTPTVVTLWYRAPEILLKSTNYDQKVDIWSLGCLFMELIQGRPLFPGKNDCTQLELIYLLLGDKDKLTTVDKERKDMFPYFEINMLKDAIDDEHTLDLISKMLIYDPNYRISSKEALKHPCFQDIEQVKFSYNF

[3] = target: T3, Proline--tRNA ligase (Plasmodium falciparum (isolate 3D7), UniProt Q8I5R7); assay: MMV: ProRS recombinant Plasmodium falciparum Prolyl-tRNA-synthetase, assay with yeast tRNA, ATP, and proline and 3 uM MMV malaria box compound, assay read out with kinase glo as % inhibition.
T3 sequence (Q8I5R7 whole entry): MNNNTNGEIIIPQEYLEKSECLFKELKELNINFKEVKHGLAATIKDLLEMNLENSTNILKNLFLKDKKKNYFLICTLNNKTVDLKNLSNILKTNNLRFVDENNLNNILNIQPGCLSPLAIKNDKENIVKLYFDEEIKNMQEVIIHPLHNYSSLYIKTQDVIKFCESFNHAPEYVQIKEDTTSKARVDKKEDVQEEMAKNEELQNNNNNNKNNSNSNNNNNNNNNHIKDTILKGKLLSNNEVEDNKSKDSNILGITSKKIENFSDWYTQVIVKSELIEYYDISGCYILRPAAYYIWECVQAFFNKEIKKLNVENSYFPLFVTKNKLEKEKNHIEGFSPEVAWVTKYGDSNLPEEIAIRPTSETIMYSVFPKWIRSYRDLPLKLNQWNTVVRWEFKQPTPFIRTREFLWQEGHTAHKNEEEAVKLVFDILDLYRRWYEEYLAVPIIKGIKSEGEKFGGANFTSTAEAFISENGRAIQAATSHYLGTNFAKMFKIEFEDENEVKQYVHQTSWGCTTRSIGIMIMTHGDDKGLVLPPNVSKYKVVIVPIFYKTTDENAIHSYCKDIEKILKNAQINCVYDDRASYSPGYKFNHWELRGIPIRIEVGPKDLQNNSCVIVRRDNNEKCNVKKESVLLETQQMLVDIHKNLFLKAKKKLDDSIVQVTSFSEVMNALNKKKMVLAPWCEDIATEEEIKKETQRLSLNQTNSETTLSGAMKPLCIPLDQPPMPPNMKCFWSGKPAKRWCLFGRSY

[4] = target: Lysine--tRNA ligase (Plasmodium falciparum (isolate 3D7), UniProt Q8IDJ8); assay: MMV: KRS recombinant Plasmodium falciparum Lysyl-tRNA-synthetase, assay with yeast tRNA, ATP, and lysine and 3 uM MMV malaria box compound, assay read out with kinase glo as % inhibition.
[5] = target: T4, Putative uncharacterized protein pk7 (Plasmodium falciparum, UniProt O96214); assay: Final concentrations were 1 uM ATP, 2 mM DTT, 20 mM MgCl2, 2 mM MnCl2, 0.01% BSA, and 6 ug/ml PK7, in a buffer of 20 mM Tris-HCl (pH 7.5). The enzyme itself was the only substrate present (since autophosphorylation occurs); 100 uM 1NA-PP1 was used as a control inhibitor. Incubation time was 3 hours.
T4 sequence (O96214 whole entry): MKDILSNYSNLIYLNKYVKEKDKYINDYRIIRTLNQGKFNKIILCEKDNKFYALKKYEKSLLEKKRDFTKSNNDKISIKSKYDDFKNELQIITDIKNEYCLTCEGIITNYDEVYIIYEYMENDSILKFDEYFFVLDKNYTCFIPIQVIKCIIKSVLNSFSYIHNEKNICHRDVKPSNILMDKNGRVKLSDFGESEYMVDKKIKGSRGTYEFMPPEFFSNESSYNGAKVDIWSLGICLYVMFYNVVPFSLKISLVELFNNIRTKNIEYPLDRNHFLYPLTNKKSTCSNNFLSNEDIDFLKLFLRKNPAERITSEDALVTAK

[6] = target: Calcium-dependent protein kinase 1 (Plasmodium falciparum, UniProt P62344); assay: MMV: CDPK1 Protein kinase inhibition assay using recombinant PfCDPK1, syntide 2 peptide substrate, ATP and KinaseGlo to measure % inhibition at 1 uM MMV box compound.
[7] = target: T5, Calcium-dependent protein kinase 4 (Plasmodium falciparum (isolate 3D7), UniProt Q8IBS5); assay: MMV: CDPK4 Protein kinase inhibition assay using recombinant PfCDPK4, syntide2 peptide substrate, ATP and KinaseGlo to measure % inhibition at 1 uM MMV box compound.
T5 sequence (Q8IBS5 whole entry): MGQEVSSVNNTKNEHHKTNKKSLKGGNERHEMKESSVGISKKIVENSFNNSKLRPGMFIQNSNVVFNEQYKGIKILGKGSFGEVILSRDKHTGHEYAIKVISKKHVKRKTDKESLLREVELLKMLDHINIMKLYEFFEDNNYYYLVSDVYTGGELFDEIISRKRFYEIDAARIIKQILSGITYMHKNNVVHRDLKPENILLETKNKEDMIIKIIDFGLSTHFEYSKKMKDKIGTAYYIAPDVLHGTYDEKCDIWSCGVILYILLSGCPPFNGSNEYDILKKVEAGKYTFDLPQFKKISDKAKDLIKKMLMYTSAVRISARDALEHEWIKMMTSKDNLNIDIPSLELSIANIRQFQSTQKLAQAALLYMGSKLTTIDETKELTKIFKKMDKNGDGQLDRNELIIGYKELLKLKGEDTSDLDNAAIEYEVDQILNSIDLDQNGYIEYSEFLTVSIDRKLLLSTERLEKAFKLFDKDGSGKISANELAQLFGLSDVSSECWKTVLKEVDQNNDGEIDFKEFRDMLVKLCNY

Chain of Lysine--tRNA ligase (Q8IDJ8 whole entry): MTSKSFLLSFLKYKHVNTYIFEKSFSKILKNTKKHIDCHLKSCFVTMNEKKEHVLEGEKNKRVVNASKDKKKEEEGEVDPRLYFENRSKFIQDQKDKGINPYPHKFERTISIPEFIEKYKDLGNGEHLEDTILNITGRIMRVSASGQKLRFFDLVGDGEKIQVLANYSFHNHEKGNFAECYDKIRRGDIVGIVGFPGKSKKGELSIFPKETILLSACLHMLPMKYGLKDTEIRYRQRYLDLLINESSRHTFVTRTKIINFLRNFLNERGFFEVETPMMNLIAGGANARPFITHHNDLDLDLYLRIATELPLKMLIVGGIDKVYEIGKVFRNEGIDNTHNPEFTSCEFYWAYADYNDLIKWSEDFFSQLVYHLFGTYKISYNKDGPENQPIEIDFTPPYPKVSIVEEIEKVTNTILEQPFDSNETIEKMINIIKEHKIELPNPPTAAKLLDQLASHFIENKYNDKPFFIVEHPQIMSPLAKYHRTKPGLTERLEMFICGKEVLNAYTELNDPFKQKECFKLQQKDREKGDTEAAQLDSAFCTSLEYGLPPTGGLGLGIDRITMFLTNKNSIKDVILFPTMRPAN
Chain of Calcium-dependent protein kinase 1 (P62344 whole entry): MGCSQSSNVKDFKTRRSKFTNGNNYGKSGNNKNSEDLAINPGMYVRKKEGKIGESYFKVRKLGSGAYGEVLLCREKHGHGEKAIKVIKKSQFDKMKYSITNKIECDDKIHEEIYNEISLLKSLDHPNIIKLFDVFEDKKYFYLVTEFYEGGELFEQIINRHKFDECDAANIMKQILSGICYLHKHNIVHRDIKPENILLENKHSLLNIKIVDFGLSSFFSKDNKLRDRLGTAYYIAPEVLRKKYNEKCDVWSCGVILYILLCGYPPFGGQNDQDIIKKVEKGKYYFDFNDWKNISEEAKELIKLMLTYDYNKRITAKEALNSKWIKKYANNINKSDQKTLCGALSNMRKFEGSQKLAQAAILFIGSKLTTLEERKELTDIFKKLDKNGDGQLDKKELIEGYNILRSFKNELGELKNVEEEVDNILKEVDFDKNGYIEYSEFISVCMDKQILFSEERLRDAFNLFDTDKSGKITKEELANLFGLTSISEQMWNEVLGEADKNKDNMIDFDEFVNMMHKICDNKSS

Compound	IC50 [1]	IC50 [2]	IC50 [3]	IC50 [4]	IC50 [5]	IC50 [6]	IC50 [7]
O=C(Nc1ccccc1O)c1ccc(Oc2cccc(C(=O)Nc3ccccc3O)c2)cc1	> 1000 nM	> 1000 nM	> 2500 nM	> 2500 nM	> 1000 nM	> 1000 nM	> 1000 nM
N=c1n(CCN2CCCCC2)c2ccccc2n1CC(O)c1cccc(Br)c1 (stereo not given)	> 1000 nM	> 1000 nM	> 2500 nM	> 2500 nM	> 1000 nM	> 1000 nM	> 1000 nM
COc1cccc(O)c1CN1CCC2(CCCN(Cc3ccc(F)cc3)C2)C1 (stereo not given)	> 1000 nM	> 1000 nM	> 2500 nM	> 2500 nM	> 1000 nM	> 1000 nM	> 1000 nM
O=C(NCc1ccco1)C1CCN(S(=O)(=O)c2ccc(Cl)cc2)CC1	> 1000 nM	> 1000 nM	> 2500 nM	> 2500 nM	> 1000 nM	> 1000 nM	> 1000 nM
FC(F)(F)c1ccc(Nc2nnnc3ccccc23)cc1	> 1000 nM	> 1000 nM	> 2500 nM	> 2500 nM	> 1000 nM	> 1000 nM	> 1000 nM
COc1cccc(NC(=O)Cn2c(C)c(C#N)c3ccccc32)c1	> 1000 nM	> 1000 nM	> 2500 nM	> 2500 nM	> 1000 nM	> 1000 nM	> 1000 nM
CC(C)=CCN1CCC(C(=O)Nc2ccc(-c3nc4ccccc4[nH]3)cc2)CC1	> 1000 nM	> 1000 nM	> 2500 nM	> 2500 nM	> 1000 nM	> 1000 nM	> 1000 nM
FC(F)(F)c1cccc(Nc2nc(-c3ccccc3)nc3ncccc23)c1	> 1000 nM	> 1000 nM	> 2500 nM	> 2500 nM	> 1000 nM	> 1000 nM	> 1000 nM
CCN1CCN(c2cc(C)c3cc(NC(=O)c4ccc(OC)c(OC)c4)ccc3n2)CC1	> 1000 nM	> 1000 nM	> 2500 nM	> 2500 nM	> 1000 nM	> 1000 nM	> 1000 nM
COc1ccc(CNC2CCN(c3ccc(NC(=O)c4cccc(Cl)c4)cc3)CC2)cc1OC	> 1000 nM	> 1000 nM	> 2500 nM	> 2500 nM	> 1000 nM	> 1000 nM	> 1000 nM
